According to article PMC8725837, “2-Arylquinolines as novel anticancer agents with dual EGFR/FAK kinase inhibitory activity: synthesis, biological evaluation, and molecular modelling insights” (Journal of Enzyme Inhibition and Medicinal Chemistry, 2021):
One block for each compound: values may come before it.

What was measured:
[1] = system: MDMBA-231 breast cancer cell line; assay: MTT antiproliferative assay, MDMBA-231; format: cell-based; settings: 10 µM, 24 h
Description: (§1) At least, three independent experiments were performed.

recombinant human TOP1 = target: T1, recombinant human TOP1 (Homo sapiens, UniProt P11387); assay: Topoisomerase I-mediated DNA cleavage assay; settings: tested at 0.1, 1, 10, 100 µM
T1 sequence (P11387 1-765): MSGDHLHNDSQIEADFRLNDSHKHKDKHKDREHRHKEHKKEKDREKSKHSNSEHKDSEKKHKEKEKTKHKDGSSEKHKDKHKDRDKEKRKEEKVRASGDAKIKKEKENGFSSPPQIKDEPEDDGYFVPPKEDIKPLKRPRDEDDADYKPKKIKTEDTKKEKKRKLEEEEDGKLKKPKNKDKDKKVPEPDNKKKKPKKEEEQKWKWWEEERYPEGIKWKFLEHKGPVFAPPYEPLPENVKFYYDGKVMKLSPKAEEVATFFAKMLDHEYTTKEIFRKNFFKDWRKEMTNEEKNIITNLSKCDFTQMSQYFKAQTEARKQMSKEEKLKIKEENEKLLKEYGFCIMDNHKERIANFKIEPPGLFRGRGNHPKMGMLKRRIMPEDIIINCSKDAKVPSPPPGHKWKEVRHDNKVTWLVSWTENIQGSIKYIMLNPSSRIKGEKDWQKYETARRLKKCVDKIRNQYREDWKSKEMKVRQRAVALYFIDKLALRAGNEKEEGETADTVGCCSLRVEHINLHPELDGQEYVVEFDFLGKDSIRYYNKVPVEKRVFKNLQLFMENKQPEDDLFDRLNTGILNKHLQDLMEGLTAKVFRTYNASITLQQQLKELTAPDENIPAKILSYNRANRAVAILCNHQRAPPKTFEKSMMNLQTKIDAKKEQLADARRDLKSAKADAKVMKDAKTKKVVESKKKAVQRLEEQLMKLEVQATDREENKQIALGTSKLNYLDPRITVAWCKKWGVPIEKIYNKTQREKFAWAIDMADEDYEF
Description: Radiolabeled DNA was incubated with recombinant human TOP1 in 20 µL reaction buffer (10 mmol/L Tris-HCl, pH 7.5, 50 mmol/L KCl, 5 mmol/L MgCl2, 0.1 mmol/L EDTA, and 15 µg/mL BSA) at 30 °C for 20 min in the presence of the indicated drug concentrations. Reactions were terminated by adding SDS (0.5% final concentration) followed by the addition of two volumes of loading dye (80% formamide, 10 mmol/L sodium hydroxide, 1 mmol/L sodium EDTA, 0.1% xylene cyanol, and 0.1% bromophenol blue). Aliquots of reaction mixtures were subjected to 20% denaturing PAGE. Gels were dried and visualised by using PhosphorImager and Image Quant software (Molecular Dynamics).

VEGFR-2 = target: T2, VEGFR-2 (Homo sapiens, UniProt P35968); assay: Z`-LYTE kinase profiling, VEGFR-2; format: biochemical
T2 construct: purchased Invitrogen/Life Technologies
T2 sequence (P35968 20-1356): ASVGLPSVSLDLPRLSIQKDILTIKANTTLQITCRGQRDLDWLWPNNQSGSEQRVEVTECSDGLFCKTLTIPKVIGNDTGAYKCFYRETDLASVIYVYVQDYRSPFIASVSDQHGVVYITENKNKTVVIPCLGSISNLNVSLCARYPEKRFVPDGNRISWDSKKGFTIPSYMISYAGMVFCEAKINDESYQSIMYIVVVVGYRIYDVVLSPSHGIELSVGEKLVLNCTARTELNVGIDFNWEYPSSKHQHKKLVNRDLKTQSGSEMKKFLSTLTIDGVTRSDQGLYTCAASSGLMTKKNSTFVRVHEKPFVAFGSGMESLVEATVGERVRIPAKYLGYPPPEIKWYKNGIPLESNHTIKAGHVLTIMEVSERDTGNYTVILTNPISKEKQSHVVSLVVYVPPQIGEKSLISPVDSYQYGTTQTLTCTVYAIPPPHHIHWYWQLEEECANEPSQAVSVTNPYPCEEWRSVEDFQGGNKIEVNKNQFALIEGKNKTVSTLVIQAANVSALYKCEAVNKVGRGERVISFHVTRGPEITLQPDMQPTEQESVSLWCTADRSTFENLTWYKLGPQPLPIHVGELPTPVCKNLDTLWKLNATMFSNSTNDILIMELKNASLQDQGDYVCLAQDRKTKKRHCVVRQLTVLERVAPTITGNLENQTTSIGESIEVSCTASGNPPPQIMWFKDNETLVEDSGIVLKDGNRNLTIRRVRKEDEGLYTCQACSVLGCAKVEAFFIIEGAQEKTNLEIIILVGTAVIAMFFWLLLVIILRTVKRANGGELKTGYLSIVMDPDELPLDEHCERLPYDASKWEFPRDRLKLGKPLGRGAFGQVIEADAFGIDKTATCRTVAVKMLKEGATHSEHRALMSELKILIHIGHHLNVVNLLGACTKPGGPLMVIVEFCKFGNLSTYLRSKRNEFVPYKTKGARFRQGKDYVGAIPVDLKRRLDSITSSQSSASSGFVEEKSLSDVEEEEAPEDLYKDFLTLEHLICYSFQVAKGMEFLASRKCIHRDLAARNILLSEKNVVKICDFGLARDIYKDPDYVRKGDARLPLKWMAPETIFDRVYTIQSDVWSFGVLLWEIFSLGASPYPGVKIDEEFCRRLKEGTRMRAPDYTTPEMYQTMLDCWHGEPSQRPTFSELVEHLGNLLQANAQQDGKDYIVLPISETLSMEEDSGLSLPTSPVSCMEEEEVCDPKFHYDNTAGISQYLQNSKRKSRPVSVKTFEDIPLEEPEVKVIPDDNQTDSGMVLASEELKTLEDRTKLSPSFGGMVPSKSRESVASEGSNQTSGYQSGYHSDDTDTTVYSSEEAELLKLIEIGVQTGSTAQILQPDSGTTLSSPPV

[2] = system: HeLa cervical cancer cell line; assay: MTT antiproliferative assay, HeLa; format: cell-based; settings: 10 µM, 24 h
Description: as §1

VEGFR-1 = target: T3, VEGFR-1 (Homo sapiens, UniProt P17948); assay: Z`-LYTE kinase profiling, VEGFR-1; format: biochemical
T3 construct: purchased Invitrogen/Life Technologies
T3 sequence (P17948 27-1338): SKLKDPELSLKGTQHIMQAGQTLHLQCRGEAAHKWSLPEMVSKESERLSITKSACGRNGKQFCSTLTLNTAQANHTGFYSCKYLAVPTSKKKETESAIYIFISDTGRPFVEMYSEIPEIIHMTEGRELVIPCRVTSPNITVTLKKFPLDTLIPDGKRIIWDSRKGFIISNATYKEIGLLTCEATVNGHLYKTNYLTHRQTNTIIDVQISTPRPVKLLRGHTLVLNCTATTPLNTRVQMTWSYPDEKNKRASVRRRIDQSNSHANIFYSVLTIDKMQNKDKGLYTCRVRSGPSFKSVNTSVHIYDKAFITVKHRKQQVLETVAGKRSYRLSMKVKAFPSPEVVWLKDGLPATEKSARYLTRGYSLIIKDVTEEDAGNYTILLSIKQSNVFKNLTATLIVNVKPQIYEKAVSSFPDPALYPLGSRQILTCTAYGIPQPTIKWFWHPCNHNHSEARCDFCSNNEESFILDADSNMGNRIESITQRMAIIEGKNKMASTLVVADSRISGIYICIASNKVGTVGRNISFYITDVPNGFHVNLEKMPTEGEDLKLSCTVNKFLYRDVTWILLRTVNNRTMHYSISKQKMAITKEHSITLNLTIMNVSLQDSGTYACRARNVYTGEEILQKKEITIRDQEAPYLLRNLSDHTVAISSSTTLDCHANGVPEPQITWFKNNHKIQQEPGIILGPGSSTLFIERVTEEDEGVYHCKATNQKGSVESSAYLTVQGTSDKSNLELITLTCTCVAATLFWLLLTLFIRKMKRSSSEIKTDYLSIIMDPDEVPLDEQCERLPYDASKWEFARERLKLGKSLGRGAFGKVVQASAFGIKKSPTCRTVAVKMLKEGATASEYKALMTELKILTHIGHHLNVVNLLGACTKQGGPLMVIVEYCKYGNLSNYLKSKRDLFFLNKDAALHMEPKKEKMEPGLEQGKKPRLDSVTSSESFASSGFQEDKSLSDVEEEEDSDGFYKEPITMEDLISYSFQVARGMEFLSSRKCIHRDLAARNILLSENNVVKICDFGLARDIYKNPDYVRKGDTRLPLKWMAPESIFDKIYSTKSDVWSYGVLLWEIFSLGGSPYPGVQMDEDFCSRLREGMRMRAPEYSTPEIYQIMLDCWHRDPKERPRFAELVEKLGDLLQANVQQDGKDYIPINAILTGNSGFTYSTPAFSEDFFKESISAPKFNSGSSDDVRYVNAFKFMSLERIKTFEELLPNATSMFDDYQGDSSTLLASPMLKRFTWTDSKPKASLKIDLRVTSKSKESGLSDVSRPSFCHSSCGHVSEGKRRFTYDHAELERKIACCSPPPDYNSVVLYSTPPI

[3] = system: HCT-116 colorectal cancer cell line; assay: MTT antiproliferative assay, HCT-116; settings: for GI% HCT-116: 10 µM, 24 h, MTT; for IC50: Homo sapiens, HCT-116, 24 h, read-out: IC50 HCT-116 (half maximal growth inhibitory concentration)
EGFR = EGFR (Homo sapiens, UniProt P00533); assay: Z`-LYTE kinase inhibitory assay, EGFR
[4] = system: MCF-7 breast cancer cell line; assay: MTT antiproliferative assay, MCF-7; format: cell-based; settings: 10 µM, 24 h
Description: as §1

c-Src = target: T4, c-Src (Homo sapiens, UniProt P12931); assay: Z`-LYTE kinase profiling, c-Src; format: biochemical
T4 construct: purchased Invitrogen/Life Technologies
T4 sequence (P12931 whole entry): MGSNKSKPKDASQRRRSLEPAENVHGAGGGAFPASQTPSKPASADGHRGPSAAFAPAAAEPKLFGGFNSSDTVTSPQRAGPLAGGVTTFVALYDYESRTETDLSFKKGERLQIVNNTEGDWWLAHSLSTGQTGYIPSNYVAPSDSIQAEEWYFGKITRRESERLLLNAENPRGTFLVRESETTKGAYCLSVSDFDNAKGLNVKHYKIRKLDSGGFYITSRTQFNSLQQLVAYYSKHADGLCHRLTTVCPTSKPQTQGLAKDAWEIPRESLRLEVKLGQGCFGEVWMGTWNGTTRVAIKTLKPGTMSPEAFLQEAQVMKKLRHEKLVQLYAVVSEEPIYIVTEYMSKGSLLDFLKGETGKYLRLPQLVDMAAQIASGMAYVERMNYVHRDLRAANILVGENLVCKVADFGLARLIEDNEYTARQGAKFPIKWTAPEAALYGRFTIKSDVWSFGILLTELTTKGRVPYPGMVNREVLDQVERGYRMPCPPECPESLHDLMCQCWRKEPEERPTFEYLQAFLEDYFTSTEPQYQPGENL

[5] = system: DLD-1 colorectal cancer cell line; assay: MTT antiproliferative assay, DLD-1; settings: for GI% DLD1: 10 µM, 24 h, MTT; for IC50: Homo sapiens, DLD-1, 24 h, read-out: IC50 DLD1 (half maximal growth inhibitory concentration)
Description: After the incubation of the tested compounds for 24 h, the percent growth inhibition (GI%) was calculated.
Cells were seeded at 1 × 10^4 cells/well and cultured overnight in a 96-well plate. […] Then, 150 µl DMSO was used to solubilise MTT formazan crystals. Finally, the plates were shaken, and the optical density was determined at 570 nm using ELISA plate reader. At least, three independent experiments were performed. Percentage of growth inhibition was determined as (1-[OD of treated cells/OD of control cells]). […] The IC50 values were calculated using Prism v0.8 software (GraphPad Software Inc., La Jolla, CA).

HER-2 = target: T5, HER-2 (Homo sapiens, UniProt P04626); assay: Z`-LYTE kinase profiling, HER-2; format: biochemical
T5 construct: purchased Invitrogen/Life Technologies
T5 sequence (P04626 23-1255): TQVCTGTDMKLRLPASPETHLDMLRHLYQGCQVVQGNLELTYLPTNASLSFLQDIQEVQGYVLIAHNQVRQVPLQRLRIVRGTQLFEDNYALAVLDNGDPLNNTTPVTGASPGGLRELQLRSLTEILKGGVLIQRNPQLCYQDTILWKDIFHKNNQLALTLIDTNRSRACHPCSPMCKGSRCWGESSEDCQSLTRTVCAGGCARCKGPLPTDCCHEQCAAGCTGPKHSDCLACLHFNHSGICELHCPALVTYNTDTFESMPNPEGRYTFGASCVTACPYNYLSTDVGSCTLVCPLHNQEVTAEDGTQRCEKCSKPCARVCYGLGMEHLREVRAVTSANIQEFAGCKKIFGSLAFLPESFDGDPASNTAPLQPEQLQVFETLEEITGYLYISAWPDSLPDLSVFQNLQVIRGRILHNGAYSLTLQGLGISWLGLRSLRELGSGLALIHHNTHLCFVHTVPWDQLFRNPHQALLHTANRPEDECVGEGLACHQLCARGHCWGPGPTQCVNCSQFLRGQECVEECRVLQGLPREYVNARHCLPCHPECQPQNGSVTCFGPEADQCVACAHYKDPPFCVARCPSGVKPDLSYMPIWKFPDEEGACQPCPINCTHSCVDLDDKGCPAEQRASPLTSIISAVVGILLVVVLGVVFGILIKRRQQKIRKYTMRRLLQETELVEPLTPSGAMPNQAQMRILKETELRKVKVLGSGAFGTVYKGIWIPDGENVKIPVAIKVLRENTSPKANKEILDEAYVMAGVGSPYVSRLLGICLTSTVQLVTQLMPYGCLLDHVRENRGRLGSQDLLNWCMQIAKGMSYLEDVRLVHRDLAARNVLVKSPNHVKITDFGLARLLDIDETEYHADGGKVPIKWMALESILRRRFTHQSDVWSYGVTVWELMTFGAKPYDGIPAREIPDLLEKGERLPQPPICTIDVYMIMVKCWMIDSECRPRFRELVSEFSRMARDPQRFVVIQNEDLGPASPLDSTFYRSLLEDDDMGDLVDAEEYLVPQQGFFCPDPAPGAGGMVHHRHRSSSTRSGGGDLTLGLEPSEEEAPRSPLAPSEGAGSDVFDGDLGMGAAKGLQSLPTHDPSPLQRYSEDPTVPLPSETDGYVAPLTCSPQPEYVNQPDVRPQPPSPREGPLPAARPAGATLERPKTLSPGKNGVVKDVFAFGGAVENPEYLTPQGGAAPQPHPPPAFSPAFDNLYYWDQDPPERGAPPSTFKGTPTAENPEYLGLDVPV

BTK = target: T6, BTK (Homo sapiens, UniProt Q06187); assay: Z`-LYTE kinase profiling, BTK; format: biochemical
T6 construct: purchased Invitrogen/Life Technologies

FRK = target: T7, FRK (Homo sapiens, UniProt P42685); assay: Z`-LYTE kinase profiling, FRK; format: biochemical
T7 construct: purchased Invitrogen/Life Technologies
T7 sequence (P42685 whole entry): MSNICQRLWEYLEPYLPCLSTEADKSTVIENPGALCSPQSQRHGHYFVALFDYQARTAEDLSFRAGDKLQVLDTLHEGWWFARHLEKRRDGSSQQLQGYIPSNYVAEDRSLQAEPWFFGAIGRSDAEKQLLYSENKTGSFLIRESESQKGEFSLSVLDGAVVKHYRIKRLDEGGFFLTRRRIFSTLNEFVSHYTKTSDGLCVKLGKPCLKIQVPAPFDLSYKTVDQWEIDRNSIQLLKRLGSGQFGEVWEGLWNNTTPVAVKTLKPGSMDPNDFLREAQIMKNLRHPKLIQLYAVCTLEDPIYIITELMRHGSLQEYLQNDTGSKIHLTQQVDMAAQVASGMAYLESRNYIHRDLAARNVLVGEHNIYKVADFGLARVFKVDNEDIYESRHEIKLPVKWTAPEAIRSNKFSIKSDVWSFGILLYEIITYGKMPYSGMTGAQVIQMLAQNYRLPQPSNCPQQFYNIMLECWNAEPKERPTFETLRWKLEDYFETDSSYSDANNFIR

FAK = FAK (Homo sapiens, UniProt Q05397); assay: Z`-LYTE kinase inhibitory assay, FAK
IGF-1R = target: T8, IGF-1R (Homo sapiens, UniProt P08069); assay: Z`-LYTE kinase profiling, IGF-1R; format: biochemical
T8 construct: purchased Invitrogen/Life Technologies

SMILES: Clc1ccc(-c2cc(OCCCn3ccnc3)c3cc(Br)ccc3n2)cc1 [16a, 4-(3-(1H-imidazol-1-yl)propoxy)-6-bromo-2-(4-chlorophenyl)quinoline]
GI% MDMBA-231 [1]: 51.24%
TOP1 inhibitory activity (semiquantitative score relative to 1 µM CPT) (recombinant human TOP1): 0
IC50 (VEGFR-2): 3410 nM
GI% Hela [2]: 47.35%
IC50 (VEGFR-1): 1960 nM
GI% HCT-116 [3]: 76.17%
IC50 [3]: 6150 ± 1300 nM
IC50 (EGFR): 222 ± 8.25 nM
GI% MCF-7 [4]: 22.97%
IC50 (c-Src): 1350 nM
GI% DLD1 [5]: 60.08%
IC50 [5]: 8220 ± 1120 nM
IC50 (HER-2): 2020 nM
IC50 (BTK): 4800 nM
IC50 (FRK): 6150 nM
IC50 (FAK): 44.1 ± 3.26 nM
IC50 (IGF-1R): 5230 nM
melting point: 149 to 151 °C

SMILES: Clc1ccc(-c2cc(OCCCN3CCOCC3)c3cc(Br)ccc3n2)cc1 [16b, 4-(3-((6-bromo-2-(4-chlorophenyl)quinolin-4-yl)oxy)propyl)morpholine]
GI% MDMBA-231 [1]: 45.31%
TOP1 inhibitory activity (semiquantitative score relative to 1 µM CPT) (recombinant human TOP1): 0
IC50 (VEGFR-2): 3230 nM
GI% Hela [2]: 35.94%
IC50 (VEGFR-1): 1270 nM
GI% HCT-116 [3]: 87.61%
IC50 [3]: 4220 ± 1050 nM
IC50 (EGFR): 313 ± 15.3 nM
GI% MCF-7 [4]: 19.38%
IC50 (c-Src): 1320 nM
GI% DLD1 [5]: 55.82%
IC50 [5]: 8690 ± 2640 nM
IC50 (HER-2): 2310 nM
IC50 (BTK): 2880 nM
IC50 (FRK): 3130 nM
IC50 (FAK): 50.4 ± 4.81 nM
IC50 (IGF-1R): 3490 nM
melting point: 137 to 139 °C

SMILES: Fc1ccc(-c2cc(OCCCn3ccnc3)c3cc(Br)ccc3n2)cc1 [16c, 4-(3-(1H-imidazol-1-yl)propoxy)-6-bromo-2-(4-fluorophenyl)quinoline]
GI% MDMBA-231 [1]: 20.11%
TOP1 inhibitory activity (semiquantitative score relative to 1 µM CPT) (recombinant human TOP1): + (+: 25–50% 1 µM CPT)
IC50 (VEGFR-2): 5100 nM
GI% Hela [2]: 8.67%
IC50 (VEGFR-1): 2560 nM
GI% HCT-116 [3]: 18.14%
IC50 [3]: 88000 ± 5240 nM
IC50 (EGFR): 485 ± 11.4 nM
GI% MCF-7 [4]: 4.36%
IC50 (c-Src): 1730 nM
GI% DLD1 [5]: 12.25%
IC50 [5]: > 100000 nM
IC50 (HER-2): 1610 nM
IC50 (BTK): 5620 nM
IC50 (FRK): 6670 nM
IC50 (FAK): 224 ± 10.5 nM
IC50 (IGF-1R): 6690 nM
melting point: 144 to 146 °C

SMILES: COc1ccc(-c2ccc3nc(-c4ccc(Cl)cc4)cc(OCCCN4CCOCC4)c3c2)cc1 [20b, 4-(3-((2-(4-chlorophenyl)-6-(4-methoxyphenyl)quinolin-4-yl)oxy)propyl)morpholine]
GI% MDMBA-231 [1]: 48.31%
TOP1 inhibitory activity (semiquantitative score relative to 1 µM CPT) (recombinant human TOP1): 0
IC50 (VEGFR-2): 2300 nM
GI% Hela [2]: 34.02%
IC50 (VEGFR-1): 4740 nM
GI% HCT-116 [3]: 71.05%
IC50 [3]: 7340 ± 1820 nM
IC50 (EGFR): 245 ± 12.3 nM
GI% MCF-7 [4]: 29.37%
IC50 (c-Src): 4210 nM
GI% DLD1 [5]: 53.15%
IC50 [5]: 9650 ± 2150 nM
IC50 (HER-2): 1650 nM
IC50 (BTK): 8980 nM
IC50 (FRK): 8710 nM
IC50 (FAK): 63.2 ± 3.25 nM
IC50 (IGF-1R): 8910 nM
melting point: 173 to 175 °C

Stronger by IC50 (VEGFR-2), values ahead:

TOP1 inhibitory activity (semiquantitative score relative to 1 µM CPT) (recombinant human TOP1): 0
IC50 (VEGFR-2): 56.9 nM
IC50 (VEGFR-1): 7720 nM
IC50 [3]: 6370 ± 1090 nM
IC50 (EGFR): 247 ± 12.3 nM
IC50 (c-Src): 119 nM
IC50 [5]: 9120 ± 2110 nM
IC50 (HER-2): 169 nM
IC50 (BTK): 99.5 nM
IC50 (FRK): 4880 nM
IC50 (FAK): 111 ± 8.94 nM
IC50 (IGF-1R): 9000 nM
melting point: 125 to 127 °C
SMILES: FC(F)(F)c1ccc(-c2cc(OCCCn3ccnc3)c3cc4c(cc3n2)OCO4)cc1 [12c, 8-(3-(1H-imidazol-1-yl)propoxy)-6-(4-(trifluoromethyl)phenyl)-[1,3]dioxolo[4,5-g]qui-noline]
GI% MDMBA-231 [1]: 61.94%
GI% Hela [2]: 68.22%
GI% HCT-116 [3]: 80.49%
GI% MCF-7 [4]: 43.27%
GI% DLD1 [5]: 71.94%

TOP1 inhibitory activity (semiquantitative score relative to 1 µM CPT) (recombinant human TOP1): 0
IC50 (VEGFR-2): 855 nM
IC50 (VEGFR-1): 2540 nM
IC50 [3]: 9200 ± 2490 nM
IC50 (EGFR): 450.2 ± 4.25 nM
IC50 (c-Src): 1450 nM
IC50 [5]: 74900 ± 5460 nM
IC50 (HER-2): 897 nM
IC50 (BTK): 653 nM
IC50 (FRK): 6530 nM
IC50 (FAK): 273 ± 2.84 nM
IC50 (IGF-1R): 453 nM
melting point: 138 to 140 °C
SMILES: FC(F)(F)c1ccc(-c2cc(OCCCN3CCOCC3)c3cc4c(cc3n2)OCO4)cc1 [12d, 8-(3-morpholinopropoxy)-6-(4-(trifluoromethyl)phenyl)-[1,3]dioxolo[4,5-g]quinoline]
GI% MDMBA-231 [1]: 9.36%
GI% Hela [2]: 36.67%
GI% HCT-116 [3]: 54.37%
GI% MCF-7 [4]: 26.54%
GI% DLD1 [5]: 22.58%

TOP1 inhibitory activity (semiquantitative score relative to 1 µM CPT) (recombinant human TOP1): 0
IC50 (VEGFR-2): 1250 nM
IC50 (VEGFR-1): 1350 nM
IC50 [3]: 24100 ± 2460 nM
IC50 (EGFR): 122 ± 9.4 nM
IC50 (c-Src): 2900 nM
IC50 [5]: 13000 ± 3690 nM
IC50 (HER-2): 1010 nM
IC50 (BTK): 8670 nM
IC50 (FRK): 2620 nM
IC50 (FAK): 77.3 ± 4.37 nM
IC50 (IGF-1R): 2860 nM
melting point: 210 to 212 °C
SMILES: COc1ccc(-c2ccc3nc(-c4ccc(Cl)cc4)cc(OCCCn4ccnc4)c3c2)cc1 [20a, 4-(3-(1H-imidazol-1-yl)propoxy)-2-(4-chlorophenyl)-6-(4-methoxyphenyl)quinoline]
GI% MDMBA-231 [1]: 29.08%
GI% Hela [2]: 22.06%
GI% HCT-116 [3]: 36.71%
GI% MCF-7 [4]: 15.23%
GI% DLD1 [5]: 44.98%
